Measured values as given in patent US8486464B2, “Herbal composition for angina pectoris, method to prepare same and uses thereof” (Tasly Pharmaceutical Group Co. Ltd., priority 2000, dated 2013).
Where two headings read alike, the source gives them in different places.

Key:
[1] = system: chronic pulmonary heart disease; test: Chronic pulmonary heart disease, DSP vs persantin: efficacy; type: in vivo, human; settings: 1 month
Source text: (§1) 90 cases of chronic pulmonary heart disease were selected based on the diagnosis standard set up during the National Pulmonary Heart Disease Congress in 1977. The patients were divided randomly into an Observation group and a Control group. The 60 cases in the Observation group took DSP, while the 30 cases in the Control group took persantin. Based on the objectives of: reduced inflammation, coughing cessation, dissolving of sputum, cardial and diuretic action, and cardiac function improvement, the Observation group was given 10 grains of DSP, 3 times a day. The Control group was given 50 mg of Poon Seng Ding each time, 3 times a day. Treatment lasted 1 month.
(1) Obvious Efficacy. The symptoms such as coughing, asthma, pulmonary rales, syanosis were relieved or disappeared. The ascites and lower limbs sdema were disappeared as well. Heartbeat was under 100 times/min and cardiac function was improved above grade I-II. The urine volume per day increased by 600 ml and above, while the body weight decreased by 4%. The end-brush circulations were improved.
(3) Inefficacy. Above all markers were not improved.

[2] = system: hemorheology; test: Chronic pulmonary heart disease: hemorheologic markers; type: in vivo, human
Source text: as §1

[3] = system: CK, LDH; test: Dog blood serum CK and LDH; type: in vivo; settings: dogs, Dan Shen Pill 2 g/kg
Description: (§2) 1.1 Experimental Groups. (1) Blank control group, normal saline 3 ml/kg; (2) DSP group, 2 g natural drug/kg; (3) positive control group, Ditiazem, 5 mg/kg. All the above samples are diluted with normal saline to the same volume of 3 ml/kg and were given to the patient through the duodenum.
(§3) 1.2 Experimental Method. The dogs are anesthetized with pentobarbital sodium. Chests were opened and coronary arterioles and the central part of the dorsal lower branch separated and tied to create an acute myocardial ischemia model. ECGs were recorded and the level of myocardial ischemia (increased section ST, ST) and area of myocardial ischemia (the total increased decimal places in section ST) were calculated. The oxygen content in the coronary artery was recorded. Blood serum creatine kinase (CK), lactate dehydrogenase (LDH), ET, TXB2 and 6-Keto-PGF1 were measured. The oxygen content of the aorta and coronary vein, and blood flow volume in the coronary arteries were measured to calculate myocardial oxygen consumption. Blood oxygen content in the coronary vein was measured to calculate myocardial oxygen content (myocardial oxygen content=(blood oxygen content in arteries-blood oxygen content in coronary veins)×blood flow volume in coronary artery/100).

[4] = system: ET, TXB2, 6-Keto-PGF1α; test: Dog plasma ET, TXB2, 6-Keto-PGF1α; type: in vivo; settings: dogs, Dan Shen Pill 2 g/kg, Diltiazen 5 mg/kg
Description: as §2, §3

[5] = system: polychromatic RBCs; test: Micronucleus rates in mice; type: in vivo; settings: 80 mg/kg; 24 hrs
[6] = cited from earlier work
[7] = system: hemicrania; test: Hemicrania, DSP vs Flunarizine; type: in vivo, human; settings: 8 weeks
Description: (2) Effects on hemicrania 58 patients with hemicrania were selected from clinics. They all qualify under International Headache Standards classifications. 10 tablets of DSP (25 mg/tablet) were given to the Treatment group, 3 times/day. 5 mg of Flunarizine was given to the control group, once a day, orally. The medication lasted 8 weeks. Treatment results and side effects were recorded every 2 weeks. No other pain-killing medications were taken within the 6 months.
Treatment standards. Controlled: Headaches disappeared with medication, and there was no reoccurrence after treatment ended; Obvious efficacy: The seriousness of headaches is reduced, duration is shortened, and onset frequency is reduced to 75% or more; Efficacy: The level of headache is reduced, and onset frequency is reduced 50%˜70%; Failure: No improvement in headaches.

[8] = cited from earlier work; remark: listed apart in the source
[9] = system: thrombosis, platelet aggregation, coagulation; settings: single injection of 20 mg/kg; cited from earlier work
[10] = system: dizziness; test: Dizziness, DSP vs lidocaine; type: in vivo, human
Source text: 61 patients were divided into two groups at random. 29 patients were in the Treatment group, including 22 patients with insufficient blood supply to the cerebral artery, 7 patients with Meniere Disease, 5 patients with high blood pressure, and 2 patients with coronary heart disease. 32 patients were in the control group, including 22 patients with insufficient blood supply to the cerebral artery, 10 patients with Meniere Disease, 7 patients with high blood pressure, and 4 patients with coronary heart disease. 10 tablets of DSP were given to the Treatment group, 3-5 times/day for 3-7 days. 50 mg of lidocaine was injected into the Control group, once a day for 3-7 days.
Treatment method: (1) Obvious Efficacy: Dizziness and other companion symptoms disappeared, and there was no re-occurrence for 12 hrs after observation. (2) Efficacy: The level of dizziness and other symptoms disappeared. (3) Failure: No improvement.

[11] = Diltiazen 5 mg/kg, 30 min after dosage
[12] = Diltiazen 5 mg/kg, 60 min after dosage
[13] = Diltiazen 5 mg/kg, 90 min after dosage
[14] = Diltiazen 5 mg/kg, 120 min after dosage
[15] = Diltiazen 5 mg/kg, 180 min after dosage
[16] = Diltiazen 5 mg/kg, after hypoxia before dosage
[17] = Ditiazen 5 mg/kg, 30 min after dosage
[18] = Ditiazen 5 mg/kg, 60 min after dosage
[19] = Ditiazen 5 mg/kg, 90 min after dosage
[20] = Ditiazen 5 mg/kg, 120 min after dosage
[21] = Ditiazen 5 mg/kg, 180 min after dosage
[22] = Ditiazen 5 mg/kg, after hypoxia before dosage
[23] = Insufficient blood supply to the brain

**Q.** Which results are given for `OCCN(CCO)c1nc(N2CCCCC2)c2nc(N(CCO)CCO)nc(N3CCCCC3)c2n1` [persantin]?
**A.** Efficacy, number of cases [1]: 9; Efficacy, rate [1]: 0.3; Obvious efficacy, number of cases [1]: 14; Obvious efficacy, rate [1]: 0.47; Total efficacy rate [1]: 0.76; Total efficacy, number of cases [1]: 23; inefficacy, number of cases [1]: 7; inefficacy, rate [1]: 0.23; Total efficacy rate ([1]; 60 DSP, 30 persantin): 76%; Aggregation rate of platelet ([2]; After treatment, 1 month): 32.28 ± 20.30%; Blood viscosity ([2]; After treatment, 1 month): 3.66 ± 0.58; Fibrinogen ([2]; After treatment, 1 month): 3.60 ± 0.23 g/L; Hematocrit ([2]; After treatment, 1 month): 0.37 ± 0.05 VOL/%; Aggregation rate of platelet ([2]; before treatment): 4.16 ± 2.32%; Blood viscosity ([2]; before treatment): 4.35 ± 0.81; Fibrinogen ([2]; before treatment): 4.22 ± 0.34 g/L; Hematocrit ([2]; before treatment): 0.48 ± 0.05 VOL/%

**Q.** What does the source list for `COc1ccc([C@@H]2Sc3ccccc3N(CCN(C)C)C(=O)[C@@H]2OC(C)=O)cc1` [Diltiazen]?
**A.** LDH, changing in percentage (before dosage = 100%) [3, 11]: 101.14 ± 17.90 %; blood serum LDH [3, 11]: 143.40 ± 28.64 U/L; LDH, changing in percentage (before dosage = 100%) [3, 12]: 92.58 ± 15.17 %; blood serum LDH [3, 12]: 134.40 ± 46.48 U/L; LDH, changing in percentage (before dosage = 100%) [3, 13]: 93.31 ± 19.02 %; blood serum LDH [3, 13]: 153.00 ± 70.80 U/L; LDH, changing in percentage (before dosage = 100%) [3, 14]: 121.32 ± 22.12%; blood serum LDH [3, 14]: 194.60 ± 76.72 U/L; LDH, changing in percentage (before dosage = 100%) [3, 15]: 117.24 ± 26.69 %; blood serum LDH [3, 15]: 164.80 ± 49.36 U/L; LDH, changing in percentage [3, 16]: 101.14 ± 17.90 %; blood serum LDH [3, 16]: 143.40 ± 28.64 U/L; blood serum LDH ([3]; Diltiazen 5 mg/kg, before hypoxia (normal)): 106.40 ± 19.12 U/L; 6-Keto-PGF1α/TXB2 ([4]; 30 min after dosage): 1.507 ± 0.505; 6-Keto-PGF1α/TXB2, changing in percentage (before dosage = 100%) ([4]; 30 min after dosage): 148.42 ± 17.35 %; 6-Keto-PGF1α/TXB2 ([4]; 60 min after dosage): 1.501 ± 0.358; 6-Keto-PGF1α/TXB2, changing in percentage (before dosage = 100%) ([4]; 60 min after dosage): 155.44 ± 28.97 %; 6-Keto-PGF1α/TXB2 ([4]; 90 min after dosage): 1.980 ± 0.924; 6-Keto-PGF1α/TXB2, changing in percentage (before dosage = 100%) ([4]; 90 min after dosage): 203.82 ± 83.25 %; 6-Keto-PGF1α/TXB2 ([4]; 120 min after dosage): 1.980 ± 0.924; 6-Keto-PGF1α/TXB2, changing in percentage (before dosage = 100%) ([4]; 120 min after dosage): 203.82 ± 83.25 %; 6-Keto-PGF1α/TXB2 ([4]; 180 min after dosage): 1.801 ± 0.596; 6-Keto-PGF1α/TXB2, changing in percentage (before dosage = 100%) ([4]; 180 min after dosage): 198.48 ± 87.02 %; 6-Keto-PGF1α/TXB2 ([4]; after hypoxia before dosage): 143.40 ± 28.64; 6-Keto-PGF1α/TXB2, changing in percentage ([4]; after hypoxia before dosage): 101.14 ± 17.90 %; 6-Keto-PGF1α/TXB2 ([4]; before hypoxia (normal value)): 106.40 ± 19.12

**Q.** What does the source list for `O=P1(N(CCCl)CCCl)NCCCO1` (stereo not shown) [CP]?
**A.** Micro-rates (%) [5]: 23.0 ± 4.0 %; Micronucleus Cells [5]: 138

**Q.** For 3H-Borneol [Example 3H-Borneol], which diminishing half-lifetime ([6]; oral administration) is on record?
**A.** Its diminishing half-lifetime is 5.3 h.

**Q.** And the half-life time ([6]; single intraveneous injection)?
**A.** The half-life time was 2.8 min.

**Q.** With `COc1ccc([C@@H]2Sc3ccccc3N(CCN(C)C)C(=O)[C@@H]2OC(C)=O)cc1` [Ditiazen] as the compound, how does the “CK, changing in percentage (before dosage = 100%)” value [3, 17] read?
**A.** The value was 97.20 ± 12.50 %.

**Q.** And the “blood serum CK” value [3, 17]?
**A.** Its value is 660.40 ± 184.88 U/L.

**Q.** And the “CK, changing in percentage (before dosage = 100%)” value [3, 18]?
**A.** Its value is 108.84 ± 20.71 %.

**Q.** What about the “blood serum CK” value [3, 18] of the same compound?
**A.** The value was 737.80 ± 159.04 U/L.

**Q.** And the “CK, changing in percentage (before dosage = 100%)” value [3, 19]?
**A.** The value was 115.31 ± 19.97 %.

**Q.** And the “blood serum CK” value [3, 19]?
**A.** The value was 820.80 ± 289.76 U/L.

**Q.** What about the “CK, changing in percentage (before dosage = 100%)” value [3, 20] of the same compound?
**A.** Its value is 314.91 ± 23.35 %.

**Q.** And the “blood serum CK” value [3, 20]?
**A.** Its value is 972.40 ± 347.28 U/L.

**Q.** And the “CK, changing in percentage (before dosage = 100%)” value [3, 21]?
**A.** Its value is 179.51 ± 10.60 %.

**Q.** And the “blood serum CK” value [3, 21]?
**A.** Its value is 1238.60 ± 309.12 U/L.

**Q.** And the “CK, changing in percentage” value [3, 22]?
**A.** Its value is 219.80 ± 38.93 %.

**Q.** What about the “blood serum CK” value [3, 22] of the same compound?
**A.** The value was 699.60 ± 211.52 U/L.

**Q.** And the “blood serum CK” value ([3]; Ditiazen 5 mg/kg, before hypoxia (normal))?
**A.** The value was 316.20 ± 63.04 U/L.

**Q.** What does the source list for `Fc1ccc(C(c2ccc(F)cc2)N2CCN(C/C=C/c3ccccc3)CC2)cc1` [Flunarizine]?
**A.** Controlled, number of cases [7]: 5; Efficacy, number of cases [7]: 7; Failure, number of cases [7]: 9; Obvious efficacy, number of cases [7]: 7; total efficacy [7]: 67.86%

**Q.** For `Cc1nc(C)c(C)nc1C.O=P(O)(O)O` [TMP, tetramethylpyrazine phosphate], which Cmax ([8]; TMP 5 mg/kg ig with previous borneol 5 mg/kg) is on record?
**A.** The Cmax was 931 ng/mL.

**Q.** And the Cmax ([8]; TMP 5 mg/kg ig without borneol)?
**A.** The Cmax was 562 ng/mL.

**Q.** With `O=C(O)[C@H](O)Cc1ccc(O)c(O)c1` [Danshensu, D(+)-3,4-dihydroxyphenyl lactic acid] as the compound, how does the duration of effect [9] read?
**A.** The duration of effect was 1 h.

**Q.** And the “time of peak effect” value [9]?
**A.** Its value is 30 min.

**Q.** For `CCN(CC)CC(=O)Nc1c(C)cccc1C` [lidocaine], which total efficacy ([10]; 3-7 days, 29 DSP, 32 lidocaine patients) is on record?
**A.** Its total efficacy is 87.5%.

**Q.** What about the “Efficacy, cases” value [10, 23] of the same compound?
**A.** The value was 8.

**Q.** And the “Failure, cases” value [10, 23]?
**A.** Its value is 2.

**Q.** What about the “Obvious Efficacy, cases” value [10, 23] of the same compound?
**A.** Its value is 12.

**Q.** What about the “Total efficacy, %” value [10, 23] of the same compound?
**A.** The value was 91%.

**Q.** What about the “Total efficacy, cases” value [10, 23] of the same compound?
**A.** The value was 20.

**Q.** What about the “Efficacy, cases” value ([10]; Meniere disease) of the same compound?
**A.** The value was 2.

**Q.** And the “Failure, cases” value ([10]; Meniere disease)?
**A.** Its value is 2.

**Q.** What about the “Obvious Efficacy, cases” value ([10]; Meniere disease) of the same compound?
**A.** Its value is 6.

**Q.** And the “Total efficacy, %” value ([10]; Meniere disease)?
**A.** The value was 80%.

**Q.** What about the “Total efficacy, cases” value ([10]; Meniere disease) of the same compound?
**A.** The value was 8.

**Q.** And the “Efficacy, cases” value ([10]; Total (all dizziness patients))?
**A.** Its value is 10.

**Q.** What about the “Failure, cases” value ([10]; Total (all dizziness patients)) of the same compound?
**A.** The value was 4.

**Q.** And the “Obvious Efficacy, cases” value ([10]; Total (all dizziness patients))?
**A.** The value was 18.

**Q.** And the “Total efficacy, %” value ([10]; Total (all dizziness patients))?
**A.** The value was 87.5%.

**Q.** And the “Total efficacy, cases” value ([10]; Total (all dizziness patients))?
**A.** Its value is 28.
